Laboratory results: patent US20060241172A1, “Benzodioxane and benzodioxolane derivatives and uses thereof” (Wyeth, priority 2005, published 2006)
pEC50: −log10 of the molar value. Where a name gives a salt, the structure may show the parent alone.

biological target: T1, human 5-HT2C receptor (Homo sapiens, UniProt P28335); test: 5-HT2C receptor-stimulated calcium mobilization (FLIPR) in CHO cells; type: cell-based; settings: CHO; read-out: 5-HT2C Function EMax (%)
T1 sequence (P28335 33-458): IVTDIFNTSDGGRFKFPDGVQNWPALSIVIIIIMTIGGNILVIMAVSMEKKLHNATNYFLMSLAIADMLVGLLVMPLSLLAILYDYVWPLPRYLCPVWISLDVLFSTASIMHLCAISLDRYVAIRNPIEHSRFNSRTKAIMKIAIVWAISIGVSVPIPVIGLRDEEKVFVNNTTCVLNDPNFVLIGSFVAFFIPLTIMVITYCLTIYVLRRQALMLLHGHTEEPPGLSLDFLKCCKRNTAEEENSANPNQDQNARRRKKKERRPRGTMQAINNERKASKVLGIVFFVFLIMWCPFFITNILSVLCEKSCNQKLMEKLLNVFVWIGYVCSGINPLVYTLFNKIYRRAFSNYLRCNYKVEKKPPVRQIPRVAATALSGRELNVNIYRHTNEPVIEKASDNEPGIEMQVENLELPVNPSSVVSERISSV

Going from `CNCC1COc2cccc(-c3ccccc3C)c2O1` (centres unmarked) [Compound I-17, N-Methyl-N-{[8-(2-methylphenyl)-2,3-dihydro-1,4-benzodioxin-2-yl]methyl}amine] to `CNCC1COc2cccc(-c3cccc(C)c3C)c2O1` (centres unmarked) [Compound I-25, {[8-(2,3-Dimethylphenyl)-2,3-dihydro-1,4-benzodioxin-2-yl]methyl}methylamine], the Emax falls from 60% to 30%.

Compared with `CNCC1COc2cccc(-c3cccc(Cl)c3Cl)c2O1` (centres unmarked) [Compound I-22, {[8-(2,3-Dichlorophenyl)-2,3-dihydro-1,4-benzodioxin-2-yl]methyl}methylamine], `CNCC1COc2cccc(-c3cccc(F)c3F)c2O1` (centres unmarked) [Compound I-27, {[8-(2,3-Difluorophenyl)-2,3-dihydro-1,4-benzodioxin-2-yl]methyl}methylamine] is lower in Emax: 40% for the first, 20% for the second.

Compared with `CNCC1COc2cccc(-c3cc(C)ccc3C)c2O1` (centres unmarked) [Compound I-26, {[8-(2,5-Dimethylphenyl)-2,3-dihydro-1,4-benzodioxin-2-yl]methyl}methylamine], `CNCC1COc2cccc(-c3ccc(F)cc3F)c2O1` (centres unmarked) [Compound I-28, {[8-(2,4-Difluorophenyl)-2,3-dihydro-1,4-benzodioxin-2-yl]methyl}methylamine] is lower in Emax: 50% for the first, 30% for the second.

same assay, conditions: read-out: 5-HT2C Function EC50

Compared with `CNCC1COc2cccc(-c3ccccc3C)c2O1` (centres unmarked) [Compound I-17, N-Methyl-N-{[8-(2-methylphenyl)-2,3-dihydro-1,4-benzodioxin-2-yl]methyl}amine], `CNCC1COc2cccc(-c3cccc(C)c3C)c2O1` (centres unmarked) [Compound I-25, {[8-(2,3-Dimethylphenyl)-2,3-dihydro-1,4-benzodioxin-2-yl]methyl}methylamine] is lower in pEC50: > 7.00 for the first, < 6.30 for the second.

First: CNCC1COc2cccc(-c3cccc(Cl)c3Cl)c2O1 (centres unmarked) [Compound I-22, {[8-(2,3-Dichlorophenyl)-2,3-dihydro-1,4-benzodioxin-2-yl]methyl}methylamine]
Second: CNCC1COc2cccc(-c3cccc(F)c3F)c2O1 (centres unmarked) [Compound I-27, {[8-(2,3-Difluorophenyl)-2,3-dihydro-1,4-benzodioxin-2-yl]methyl}methylamine]
The pEC50 of the first is higher: > 7.00 for the first, 6.30 to 7.00 for the second.

Compared with `CNCC1COc2cccc(-c3cc(C)ccc3C)c2O1` (centres unmarked) [Compound I-26, {[8-(2,5-Dimethylphenyl)-2,3-dihydro-1,4-benzodioxin-2-yl]methyl}methylamine], `CNCC1COc2cccc(-c3ccc(F)cc3F)c2O1` (centres unmarked) [Compound I-28, {[8-(2,4-Difluorophenyl)-2,3-dihydro-1,4-benzodioxin-2-yl]methyl}methylamine] is lower in pEC50: > 7.00 for the first, < 6.30 for the second. The first is the more potent here.

In the case of `CNCC1COc2cccc(-c3cc(F)ccc3F)c2O1` (centres unmarked) [Compound I-29, {[8-(2,5-Difluorophenyl)-2,3-dihydro-1,4-benzodioxin-2-yl]methyl}methylamine], the pEC50 was < 6.30.

same assay, conditions: reference compounds; read-out: EC50

With `Cc1cc2c(cc1Cl)N(C(=O)Nc1ccc(Oc3cccnc3C)nc1)CC2` [SB242084, reference compound] the pEC50 was 11.00.

test system: not given; test: not given; settings: not given

Compared with `NCC1COc2cccc(-c3ccccc3Cl)c2O1` (centres unmarked) (as salt: fumarate) [Compound I-1, {[8-(2-Chlorophenyl)-2,3-dihydro-1,4-benzodioxin-2-yl]methyl}amine], `NCC1COc2cccc(-c3ccccc3F)c2O1` (centres unmarked) (as salt: fumarate) [Compound I-2, {[8-(2-Fluorophenyl)-2,3-dihydro-1,4-benzodioxin-2-yl]methyl}amine] is lower in melting point: 210 to 211 °C for the first, 188 to 190 °C for the second.

First: Cc1ccccc1-c1cccc2c1OC(CN)CO2 (centres unmarked) (as salt: fumarate) [Compound I-3, {[8-(2-Methylphenyl)-2,3-dihydro-1,4-benzodioxin-2-yl]methyl}amine]
Second: COc1ccccc1-c1cccc2c1OC(CN)CO2 (centres unmarked) (as salt: fumarate) [Compound I-5, {[8-(2-Methoxyphenyl)-2,3-dihydro-1,4-benzodioxin-2-yl]methyl}amine]
The melting point of the first is higher: 201 to 202 °C for the first, 186 to 187 °C for the second.

First: NCC1COc2cccc(-c3ccccc3C(F)(F)F)c2O1 (centres unmarked) (as salt: fumarate) [Compound I-4, ({8-[2-(Trifluoromethyl)phenyl]-2,3-dihydro-1,4-benzodioxin-2-yl}methyl)amine]
Second: CNCC1COc2cccc(-c3ccccc3C(F)(F)F)c2O1 (centres unmarked) (as salt: fumarate) [Compound I-20, N-Methyl-1-{8-[2-(trifluoromethyl)phenyl]-2,3-dihydro-1,4-benzodioxin-2-yl}methanamine]
The melting point of the first is higher: 208 to 209 °C for the first, 184 to 185 °C for the second.

First: NCC1COc2cccc(-c3cccc(Cl)c3Cl)c2O1 (centres unmarked) (as salt: fumarate) [Compound I-6, {[8-(2,3-Dichlorophenyl)-2,3-dihydro-1,4-benzodioxin-2-yl]methyl}amine]
Second: CNCC1COc2cccc(-c3cccc(Cl)c3Cl)c2O1 (centres unmarked) (as salt: fumarate) [Compound I-22, {[8-(2,3-Dichlorophenyl)-2,3-dihydro-1,4-benzodioxin-2-yl]methyl}methylamine]
The melting point of the first is higher: 211 to 212 °C for the first, 184 to 185 °C for the second.

Compared with `NCC1COc2cccc(-c3ccc(Cl)cc3Cl)c2O1` (centres unmarked) (as salt: fumarate) [Compound I-7, {[8-(2,4-Dichlorophenyl)-2,3-dihydro-1,4-benzodioxin-2-yl]methyl}amine], `NCC1COc2cccc(-c3cc(Cl)ccc3Cl)c2O1` (centres unmarked) (as salt: fumarate) [Compound I-8, {[8-(2,5-Dichlorophenyl)-2,3-dihydro-1,4-benzodioxin-2-yl]methyl}amine] is higher in melting point: 192 to 193 °C for the first, 206 to 207 °C for the second.

First: COc1cccc(-c2cccc3c2OC(CN)CO3)c1OC (centres unmarked) (as salt: fumarate) [Compound I-9, {[8-(2,3-Dimethoxyphenyl)-2,3-dihydro-1,4-benzodioxin-2-yl]methyl}amine]
Second: CNCC1COc2cccc(-c3cccc(OC)c3OC)c2O1 (centres unmarked) (as salt: fumarate) [Compound I-30, {[8-(2,3-Dimethoxyphenyl)-2,3-dihydro-1,4-benzodioxin-2-yl]methyl}methylamine]
The melting point of the first is higher: 198 to 199 °C for the first, 159 to 160 °C for the second.

First: Cc1cccc(-c2cccc3c2OC(CN)CO3)c1C (centres unmarked) (as salt: fumarate) [Compound I-10, {[8-(2,3-Dimethylphenyl)-2,3-dihydro-1,4-benzodioxin-2-yl]methyl}amine]
Second: CNCC1COc2cccc(-c3cccc(C)c3C)c2O1 (centres unmarked) (as salt: fumarate) [Compound I-25, {[8-(2,3-Dimethylphenyl)-2,3-dihydro-1,4-benzodioxin-2-yl]methyl}methylamine]
The melting point of the first is higher: 204 to 205 °C for the first, 194 to 195 °C for the second.

First: Cc1ccc(C)c(-c2cccc3c2OC(CN)CO3)c1 (centres unmarked) (as salt: fumarate) [Compound I-11, {[8-(2,5-Dimethylphenyl)-2,3-dihydro-1,4-benzodioxin-2-yl]methyl}amine]
Second: CNCC1COc2cccc(-c3cc(C)ccc3C)c2O1 (centres unmarked) (as salt: fumarate) [Compound I-26, {[8-(2,5-Dimethylphenyl)-2,3-dihydro-1,4-benzodioxin-2-yl]methyl}methylamine]
The melting point of the first is higher: 199 to 200 °C for the first, 174 to 175 °C for the second.

First: Cc1cccc(C)c1-c1cccc2c1OC(CN)CO2 (centres unmarked) (as salt: fumarate) [Compound I-12, {[8-(2,6-Dimethylphenyl)-2,3-dihydro-1,4-benzodioxin-2-yl]methyl}amine]
Second: NCC1COc2cccc(-c3cccc(F)c3F)c2O1 (centres unmarked) (as salt: fumarate) [Compound I-13, {[8-(2,3-Difluorophenyl)-2,3-dihydro-1,4-benzodioxin-2-yl]methyl}amine]
The melting point of the first is higher: 205 to 206 °C for the first, 189 to 190 °C for the second.

First: NCC1COc2cccc(-c3ccc(F)cc3F)c2O1 (centres unmarked) (as salt: fumarate) [Compound I-14, {[8-(2,4-Difluorophenyl)-2,3-dihydro-1,4-benzodioxin-2-yl]methyl}amine]
Second: NCC1COc2cccc(-c3cc(F)ccc3F)c2O1 (centres unmarked) (as salt: fumarate) [Compound I-15, {[8-(2,5-Difluorophenyl)-2,3-dihydro-1,4-benzodioxin-2-yl]methyl}amine]
The melting point of the first is lower: 183 to 184 °C for the first, 189 to 190 °C for the second.

First: COc1ccc(Cl)cc1-c1cccc2c1OC(CN)CO2 (centres unmarked) (as salt: fumarate) [Compound I-16, {[8-(5-Chloro-2-methoxyphenyl)-2,3-dihydro-1,4-benzodioxin-2-yl]methyl}amine]
Second: CNCC1COc2cccc(-c3cc(Cl)ccc3OC)c2O1 (centres unmarked) (as salt: fumarate) [Compound I-31, {[8-(5-Chloro-2-methoxyphenyl)-2,3-dihydro-1,4-benzodioxin-2-yl]methyl}methylamine]
The melting point of the first is higher: 192 to 193 °C for the first, 172 to 173 °C for the second.

Compared with `CNCC1COc2cccc(-c3ccccc3C)c2O1` (centres unmarked) (as salt: fumarate) [Compound I-17, N-Methyl-N-{[8-(2-methylphenyl)-2,3-dihydro-1,4-benzodioxin-2-yl]methyl}amine], `CNCC1COc2cccc(-c3ccccc3F)c2O1` (centres unmarked) (as salt: fumarate) [Compound I-18, {[8-(2-Fluorophenyl)-2,3-dihydro-1,4-benzodioxin-2-yl]methyl}methylamine] is higher in melting point: 177 to 178 °C for the first, 191 to 192 °C for the second.

Compared with `CNCC1COc2cccc(-c3ccccc3OC)c2O1` (centres unmarked) (as salt: fumarate) [Compound I-19, {[8-(2-Methoxyphenyl)-2,3-dihydro-1,4-benzodioxin-2-yl]methyl}methylamine], `CNCC1COc2cccc(-c3ccccc3Cl)c2O1` (centres unmarked) (as salt: fumarate) [Compound I-21, {[8-(2-Chlorophenyl)-2,3-dihydro-1,4-benzodioxin-2-yl]methyl}methylamine] is higher in melting point: 168 to 169 °C for the first, 174 to 175 °C for the second.

Compared with `CNCC1COc2cccc(-c3cccc(F)c3F)c2O1` (centres unmarked) (as salt: fumarate) [Compound I-27, {[8-(2,3-Difluorophenyl)-2,3-dihydro-1,4-benzodioxin-2-yl]methyl}methylamine], `CNCC1COc2cccc(-c3ccc(F)cc3F)c2O1` (centres unmarked) (as salt: fumarate) [Compound I-28, {[8-(2,4-Difluorophenyl)-2,3-dihydro-1,4-benzodioxin-2-yl]methyl}methylamine] is lower in melting point: 181 to 182 °C for the first, 174 to 175 °C for the second.

First: CNCC1COc2cccc(-c3cc(F)ccc3F)c2O1 (centres unmarked) (as salt: fumarate) [Compound I-29, {[8-(2,5-Difluorophenyl)-2,3-dihydro-1,4-benzodioxin-2-yl]methyl}methylamine]
Second: CCNCC1COc2cccc(-c3ccc(Cl)cc3Cl)c2O1 (centres unmarked) (as salt: fumarate) [Compound I-33, N-{[8-(2,4-Dichlorophenyl)-2,3-dihydro-1,4-benzodioxin-2-yl]methyl}ethanamine]
The melting point of the first is higher: 193 to 194 °C for the first, 179 to 180 °C for the second.
